Laboratory results as given in article PMC5970136, “Molecular basis of dimer formation during the biosynthesis of benzofluorene-containing atypical angucyclines” (Nature Communications, 2018).
Converted amounts (≈) assume the structure as drawn.

Assays:
Assay in all cases: microbe, parasite or virus in culture
Set-up in all cases: broth microdilution in Mueller-Hinton broth, minimum inhibitory concentration
[1] = test system: T1, A. baumannii ATCC 19606; settings: Acinetobacter baumannii, ATCC19606, 18 h
T1 construct: ATCC 19606
Protocol: (§1) Antimicrobial activities were measured against seven indicator strains (Staphylococcus aureus ATCC 29213, Escherichia coli ATCC 25922, Enterococcus faecalis ATCC 29212, Acinetobacter baumannii ATCC 19606, Bacillus subtilis SCSIO BS01, Micrococcus Luteus SCSIO ML01, and methicillin resistant S. aureus ATCC 43300) by the broth microdilution method[8],[9]. Bacterial strains were grown to achieve an optical absorbance of 0.04−0.06 at 600 nm on a rotary shaker at 37 °C. […] The minimum inhibitory concentration (MIC) values were measured after 18 h cultivation. Each compound was tested in triplicates with TMP as a positive control. […] A proof of concept experiment was carried out in which FST D (7) was incubated with the antibacterial agent trimethoprim (TMP, 34). Two products 35 and 36 isolated from this reaction (Fig. 6a, Supplementary Fig. 128) were structurally characterized as hybrids of TMP and FST (Fig. 6a; Supplementary Figs. 129−142). Similar results were obtained upon incubation of TMP (34) with compound 27, but not with compound 28 (Supplementary Fig. 143). These findings again support the hypothesis that spontaneous formation of a p-QM precursor is a prerequisite for the production of FST hybrids.

[2] = test system: T2, B. subtilis SCSIO BS01; settings: Bacillus subtilis, SCSIOBS01, 18 h
T2 construct: SCSIO BS01
Protocol: as §1

[3] = test system: T3, E. coli ATCC 25922; settings: Escherichia coli, ATCC25922, 18 h
T3 construct: ATCC 25922
Protocol: as §1

[4] = test system: T4, E. faecalis ATCC 29212; settings: Enterococcus faecalis, ATCC29212, 18 h
T4 construct: ATCC 29212
Protocol: as §1

[5] = test system: T5, M. Luteus SCSIO ML01; settings: Micrococcus luteus, 18 h
T5 construct: SCSIO ML01
Protocol: as §1

[6] = test system: T6, S. aureus ATCC 29213; settings: Staphylococcus aureus, ATCC29213, 18 h
T6 construct: ATCC 29213
Protocol: as §1

[7] = test system: T7, Staphylococcus aureus MRSA ATCC 43300; settings: 18 h
T7 construct: ATCC 43300 (methicillin resistant)
Protocol: as §1

Question: With `Cc1cc(O)cc(O)c1C(=O)c1c(O)cccc1Cc1cc2c(c(=O)o1)C1c3c(cc(O)c4c3C(=O)c3cccc(O)c3-4)C(=O)C(C)(O2)C1O` (centres unmarked) [compound 16, difluostatin C] as the compound, how does the MIC [1] read?
Answer: Its MIC is greater than 64 µg/mL.

Question: And the MIC [2]?
Answer: The MIC was greater than 64 µg/mL.

Question: And the MIC [3]?
Answer: Its MIC is greater than 64 µg/mL.

Question: What about the MIC [4] of the same compound?
Answer: Its MIC is greater than 64 µg/mL.

Question: And the MIC [5]?
Answer: The MIC was greater than 64 µg/mL.

Question: What about the MIC [6] of the same compound?
Answer: The MIC was greater than 64 µg/mL.

Question: What about the MIC [7] of the same compound?
Answer: The MIC was greater than 64 µg/mL.

Question: For `Cc1ccc2c3c(c(O)cc2c1O)-c1c(O)cccc1C3=O` [compound 12, isoprefluostatin], which MIC [1] is on record?
Answer: The MIC was greater than 64 µg/mL.

Question: And the MIC [2]?
Answer: Its MIC is 32 µg/mL (≈ 109 µM).

Question: And the MIC [3]?
Answer: The MIC was greater than 64 µg/mL.

Question: What about the MIC [4] of the same compound?
Answer: The MIC was greater than 64 µg/mL.

Question: And the MIC [5]?
Answer: Its MIC is 64 µg/mL (≈ 219 µM).

Question: What about the MIC [6] of the same compound?
Answer: The MIC was 64 µg/mL (≈ 219 µM).

Question: What about the MIC [7] of the same compound?
Answer: The MIC was 64 µg/mL (≈ 219 µM).

Question: How did the MIC [1] turn out when `COC1c2c(cc(O)c3c2C(=O)c2c(C4c5c(cc(O)c6c5C(=O)c5cccc(O)c5-6)C(=O)C5(C)OC45)ccc(O)c2-3)C(=O)C2(C)OC12` (centres unmarked) [compound 26, difluostatin H] was run?
Answer: Its MIC is greater than 64 µg/mL.

Question: And the MIC [2]?
Answer: The MIC was 64 µg/mL (≈ 99.3 µM).

Question: And the MIC [3]?
Answer: The MIC was greater than 64 µg/mL.

Question: What about the MIC [4] of the same compound?
Answer: Its MIC is greater than 64 µg/mL.

Question: And the MIC [5]?
Answer: Its MIC is greater than 64 µg/mL.

Question: And the MIC [6]?
Answer: Its MIC is greater than 64 µg/mL.

Question: And the MIC [7]?
Answer: The MIC was greater than 64 µg/mL.

Question: What does the source list for `Cc1ccc2c(c1)OC1(C)C(=O)c3cc(O)c4c(c3C(N2)C1O)C(=O)c1cccc(O)c1-4` (centres unmarked) [compound 33, 33]?
Answer: MIC [1]: > 64 µg/mL; MIC [2]: > 64 µg/mL; MIC [3]: > 64 µg/mL; MIC [4]: > 64 µg/mL; MIC [5]: > 64 µg/mL; MIC [6]: > 64 µg/mL; MIC [7]: > 64 µg/mL

Question: `CC12OC1C(O)c1c(cc(O)c3c1C(=O)c1c(C4c5c(cc(O)c6c5C(=O)c5cccc(O)c5-6)C(=O)C5(C)OC45)ccc(O)c1-3)C2=O` (centres unmarked) [compound 24, difluostatin F] was tested. Which MIC [1] did it give?
Answer: Its MIC is greater than 64 µg/mL.

Question: And the MIC [2]?
Answer: The MIC was greater than 64 µg/mL.

Question: And the MIC [3]?
Answer: Its MIC is greater than 64 µg/mL.

Question: What about the MIC [4] of the same compound?
Answer: The MIC was greater than 64 µg/mL.

Question: And the MIC [5]?
Answer: Its MIC is greater than 64 µg/mL.

Question: And the MIC [6]?
Answer: The MIC was greater than 64 µg/mL.

Question: And the MIC [7]?
Answer: The MIC was greater than 64 µg/mL.

Question: For `COc1cc(Cc2cnc(N)nc2N)cc(OC)c1OC` [Trimethoprim], which MIC [1] is on record?
Answer: Its MIC is 64 µg/mL (≈ 220 µM).

Question: What about the MIC [2] of the same compound?
Answer: The MIC was 0.5 µg/mL (≈ 1.72 µM).

Question: What about the MIC [3] of the same compound?
Answer: Its MIC is 0.25 µg/mL (≈ 0.861 µM).

Question: What about the MIC [4] of the same compound?
Answer: The MIC was 2 µg/mL (≈ 6.89 µM).

Question: What about the MIC [5] of the same compound?
Answer: The MIC was 1 µg/mL (≈ 3.44 µM).

Question: And the MIC [6]?
Answer: Its MIC is 0.5 µg/mL (≈ 1.72 µM).

Question: What about the MIC [7] of the same compound?
Answer: Its MIC is 0.5 µg/mL (≈ 1.72 µM).

Question: `CC(=O)NN1c2c(c3c(c4c2C(=O)C(C)(O)C=C4)C(=O)c2cccc(O)c2-3)OC2C1c1c(cc(O)c3c1C(=O)c1cccc(O)c1-3)C(=O)C2(C)O` (centres unmarked) [compound 15, difluostatin B] was tested. Which MIC [1] did it give?
Answer: The MIC was greater than 64 µg/mL.

Question: And the MIC [2]?
Answer: Its MIC is greater than 64 µg/mL.

Question: And the MIC [3]?
Answer: The MIC was greater than 64 µg/mL.

Question: And the MIC [4]?
Answer: The MIC was greater than 64 µg/mL.

Question: And the MIC [5]?
Answer: The MIC was greater than 64 µg/mL.

Question: And the MIC [6]?
Answer: The MIC was greater than 64 µg/mL.

Question: What about the MIC [7] of the same compound?
Answer: Its MIC is greater than 64 µg/mL.

Question: Which results are given for `C[C@]12O[C@H]1[C@H](Nc1ccc(C(=O)O)cc1)c1c(cc(O)c3c1C(=O)c1cccc(O)c1-3)C2=O` [compound 14, FST S]?
Answer: MIC [1]: > 64 µg/mL; MIC [2]: > 64 µg/mL; MIC [3]: > 64 µg/mL; MIC [4]: > 64 µg/mL; MIC [5]: > 64 µg/mL; MIC [6]: > 64 µg/mL; MIC [7]: > 64 µg/mL
